Data on eight cell lines can be found in the supplement of paper PMC10307832.

What all share (test): relative viability (nuclei count vs DMSO), 5 days (fraction); higher = more cells survive
Compound in experiment [1]: CCN(CC)CCNC(=O)c1c(C)[nH]c(/C=C2\C(=O)Nc3ccc(F)cc32)c1C [Sunitinib] + CS(=O)(=O)CCNCc1ccc(-c2ccc3ncnc(Nc4ccc(OCc5cccc(F)c5)c(Cl)c4)c3c2)o1 [Lapatinib] (partner 2 µM)
The method, boiled down:
(§1)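 Cells from lung cancer lines were seeded into 1536-well plates and, one day later, dosed by pin tool. Treatments were either a single drug or a fixed dose of an anchor drug with five library-drug doses (not always all listed) in √10 steps. After 5 days, nuclei were stained in a one-step fixation (final 0.05% Triton X-100, 1% formaldehyde, 1 ug/ml Hoechst) and counted on 4× images, and relative viability is the treated-to-vehicle nuclei ratio, as the median of duplicate plates.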

Compound in experiment [2]: CCN(CC)CCNC(=O)c1c(C)[nH]c(/C=C2\C(=O)Nc3ccc(F)cc32)c1C [Sunitinib] + C[C@]1(O)C[C@@H](c2nc(-c3ccc4ccc(-c5ccccc5)nc4c3)c3c(N)nccn32)C1 [Linsitinib] (partner 1 µM)
The method, boiled down: as §1

Compound in experiment [3]: CCN(CC)CCNC(=O)c1c(C)[nH]c(/C=C2\C(=O)Nc3ccc(F)cc32)c1C [Sunitinib] + CC(=O)Nc1cccc(-n2c(=O)n(C3CC3)c(=O)c3c(Nc4ccc(I)cc4F)n(C)c(=O)c(C)c32)c1 [Trametinib] (partner 0.02 µM)
In short, it runs like this:
as §1

Compound in experiment [4]: CCN(CC)CCNC(=O)c1c(C)[nH]c(/C=C2\C(=O)Nc3ccc(F)cc32)c1C [Sunitinib] + COc1cccc2cc(-c3nc([C@H]4CC[C@H](C(=O)O)CC4)n4ncnc(N)c34)[nH]c12 [OSI-027] (partner 0.5 µM)
The method, boiled down:
as §1

For the cell line HCC-15, the relative viability in experiment [1] (first compound 0.02 µM) turned out to be 0.855; in experiment [1] (first compound 0.06325 µM) it was 0.9; in experiment [1] (first compound 0.2 µM) it was 0.91; in experiment [1] (first compound 0.6325 µM), 0.826; in experiment [1] (first compound 2 µM), 0.829; in experiment [2] (first compound 0.02 µM) it was 0.803. Also, the relative viability turned out to be 0.838 in experiment [2] (first compound 0.06325 µM); 0.928 in experiment [2] (first compound 0.2 µM); 0.902 in experiment [2] (first compound 0.6325 µM); 0.86 in experiment [2] (first compound 2 µM); 0.36 in experiment [3] (first compound 0.02 µM); 0.316 in experiment [3] (first compound 0.06325 µM). Moreover, the relative viability in experiment [3] (first compound 0.2 µM) stood at 0.305; in experiment [3] (first compound 0.6325 µM), 0.352; in experiment [3] (first compound 2 µM), 0.312; in experiment [4] (first compound 0.02 µM), 0.608; in experiment [4] (first compound 0.2 µM) it was 0.852; in experiment [4] (first compound 0.6325 µM), 0.714. In addition, the relative viability in experiment [4] (first compound 2 µM) came out at 0.641.

HCC-44: the relative viability in experiment [1] (first compound 0.02 µM) came to 1.06; in experiment [1] (first compound 0.06325 µM) it was 1; in experiment [1] (first compound 0.2 µM), 1.09; in experiment [1] (first compound 0.6325 µM) it was 0.985; in experiment [2] (first compound 0.02 µM), 0.641; in experiment [2] (first compound 0.06325 µM), 0.757. Moreover, the relative viability in experiment [2] (first compound 0.2 µM) stood at 0.772; in experiment [2] (first compound 0.6325 µM), 0.665; in experiment [2] (first compound 2 µM), 0.727; in experiment [3] (first compound 0.02 µM), 1.06; in experiment [3] (first compound 0.06325 µM), 1.14; in experiment [3] (first compound 0.2 µM) it was 1.1. In addition, the relative viability in experiment [3] (first compound 0.6325 µM) was 1.08; in experiment [4] (first compound 0.02 µM), 0.558; in experiment [4] (first compound 0.06325 µM), 0.459; in experiment [4] (first compound 0.2 µM), 0.676; in experiment [4] (first compound 0.6325 µM), 0.64; in experiment [4] (first compound 2 µM) it was 0.665.

Take HCC-78: the relative viability worked out at 0.747 in experiment [1] (first compound 0.02 µM); 0.767 in experiment [1] (first compound 0.2 µM); 0.893 in experiment [1] (first compound 2 µM); 0.472 in experiment [2] (first compound 0.02 µM); 0.501 in experiment [2] (first compound 0.2 µM); 0.565 in experiment [2] (first compound 2 µM). In addition, the relative viability is 0.76 in experiment [3] (first compound 0.02 µM); 0.812 in experiment [3] (first compound 0.06325 µM); 0.985 in experiment [3] (first compound 0.2 µM); 0.737 in experiment [3] (first compound 0.6325 µM); 0.701 in experiment [3] (first compound 2 µM); 0.352 in experiment [4] (first compound 0.02 µM). Further, the relative viability in experiment [4] (first compound 0.06325 µM) worked out at 0.397; in experiment [4] (first compound 0.2 µM) it was 0.377; in experiment [4] (first compound 0.6325 µM), 0.379; in experiment [4] (first compound 2 µM), 0.411.

As for HCC-366, the relative viability in experiment [1] (first compound 0.02 µM) was 1.04; in experiment [1] (first compound 0.06325 µM) it was 1.17; in experiment [1] (first compound 0.2 µM), 1.33; in experiment [1] (first compound 2 µM), 1.07; in experiment [2] (first compound 0.02 µM), 0.512; in experiment [2] (first compound 0.06325 µM), 0.619. For the same cell line, the relative viability in experiment [2] (first compound 0.2 µM) came to 0.606; in experiment [2] (first compound 0.6325 µM), 0.628; in experiment [2] (first compound 2 µM), 0.571; in experiment [3] (first compound 0.02 µM), 0.313; in experiment [3] (first compound 0.06325 µM), 0.407; in experiment [3] (first compound 0.2 µM), 0.382. Further, the relative viability in experiment [3] (first compound 0.6325 µM) came out at 0.389; in experiment [3] (first compound 2 µM) it was 0.339; in experiment [4] (first compound 0.02 µM), 0.895; in experiment [4] (first compound 0.06325 µM), 0.862; in experiment [4] (first compound 0.2 µM) it was 1.1; in experiment [4] (first compound 0.6325 µM), 0.904. In addition, the relative viability in experiment [4] (first compound 2 µM) is 0.636.

Regarding HCC-827, the relative viability was found to be 0.191 in experiment [1] (first compound 0.02 µM); 0.198 in experiment [1] (first compound 0.06325 µM); 0.198 in experiment [1] (first compound 0.2 µM); 0.222 in experiment [1] (first compound 0.6325 µM); 0.215 in experiment [1] (first compound 2 µM); 0.971 in experiment [2] (first compound 0.02 µM). Besides, the relative viability in experiment [2] (first compound 0.06325 µM) stood at 0.887; in experiment [2] (first compound 0.2 µM), 0.98; in experiment [2] (first compound 0.6325 µM) it was 1; in experiment [2] (first compound 2 µM) it was 0.936; in experiment [3] (first compound 0.02 µM) it was 0.555; in experiment [3] (first compound 0.06325 µM) it was 0.61. For the same cell line, the relative viability in experiment [3] (first compound 0.2 µM) stood at 0.558; in experiment [3] (first compound 0.6325 µM), 0.613; in experiment [3] (first compound 2 µM), 0.618; in experiment [4] (first compound 0.02 µM) it was 0.743; in experiment [4] (first compound 0.06325 µM), 0.709; in experiment [4] (first compound 0.6325 µM), 0.76. Moreover, the relative viability in experiment [4] (first compound 2 µM) turned out to be 0.826.

Take HOP-62: the relative viability was found to be 0.961 in experiment [1] (first compound 0.02 µM); 1.09 in experiment [1] (first compound 0.06325 µM); 1.01 in experiment [1] (first compound 0.2 µM); 1.01 in experiment [1] (first compound 0.6325 µM); 1.1 in experiment [1] (first compound 2 µM); 0.968 in experiment [2] (first compound 0.02 µM). Further, the relative viability was 1.23 in experiment [2] (first compound 0.06325 µM); 1.18 in experiment [2] (first compound 0.2 µM); 1.1 in experiment [2] (first compound 0.6325 µM); 1.11 in experiment [2] (first compound 2 µM); 0.376 in experiment [3] (first compound 0.02 µM); 0.364 in experiment [3] (first compound 0.06325 µM). The relative viability in experiment [3] (first compound 0.2 µM) is 0.389; in experiment [3] (first compound 0.6325 µM), 0.374; in experiment [3] (first compound 2 µM) it was 0.379; in experiment [4] (first compound 0.02 µM), 0.763; in experiment [4] (first compound 0.06325 µM), 1.01; in experiment [4] (first compound 0.6325 µM) it was 0.977. In addition, the relative viability in experiment [4] (first compound 2 µM) was determined as 0.995.

Turning to IA-LM, the relative viability in experiment [1] (first compound 0.02 µM) stood at 0.674; in experiment [1] (first compound 0.06325 µM), 0.917; in experiment [1] (first compound 0.2 µM), 0.804; in experiment [1] (first compound 0.6325 µM), 0.81; in experiment [1] (first compound 2 µM), 0.947; in experiment [2] (first compound 0.02 µM) it was 0.558. The relative viability in experiment [2] (first compound 0.06325 µM) was found to be 0.719; in experiment [2] (first compound 0.6325 µM) it was 0.561; in experiment [2] (first compound 2 µM), 0.94.

In the case of LC-2-ad, the relative viability is 0.916 in experiment [1] (first compound 0.02 µM); 1.11 in experiment [1] (first compound 0.06325 µM); 1.07 in experiment [1] (first compound 0.2 µM); 0.904 in experiment [1] (first compound 0.6325 µM); 0.581 in experiment [1] (first compound 2 µM); 0.839 in experiment [2] (first compound 0.02 µM). Besides, the relative viability in experiment [2] (first compound 0.06325 µM) came out at 0.918; in experiment [2] (first compound 0.2 µM) it was 0.89; in experiment [2] (first compound 0.6325 µM) it was 0.844; in experiment [2] (first compound 2 µM), 0.677; in experiment [3] (first compound 0.02 µM), 0.894; in experiment [3] (first compound 0.06325 µM), 0.951. The relative viability in experiment [3] (first compound 0.2 µM) turned out to be 0.896; in experiment [3] (first compound 0.6325 µM), 0.825; in experiment [3] (first compound 2 µM) it was 0.722; in experiment [4] (first compound 0.06325 µM), 0.844; in experiment [4] (first compound 0.2 µM) it was 0.944; in experiment [4] (first compound 0.6325 µM), 0.818. Also, in experiment [4] (first compound 2 µM), the relative viability stood at 0.614.
